From patent US4288595A, “7-(Substituted)-7H-pyrrolo[3,2-f]quinazoline-1,3-diamines” (priority 1980, dated 1981)
In brackets after ≈: the same amount, converted by molar mass. Read-outs that look alike come from different tables or passages of the source.

Tests used:
K. pneumoniae 10031 = assay: In vitro antibacterial activity, MIC by agar dilution; type: cell-based; settings: read-out: MIC, K. pneumoniae 10031
Procedure: (§1) A stock solution or suspension of the test compound at a concentration of 2500 μg/ml. is prepared utilizing a suitable solvent or medium such as aqueous sodium hydroxide, aqueous lactic acid, methyl cellosolve, dimethylsulfoxide, dimethylacetamide, ethylene glycol, dimethylformamide, formamide, propylene glycol, acetone or methanol. Two-fold dilutions are made by adding appropriate amounts of sterile water to the solution or suspension of the test substance. One ml. quantities of each dilution are incorporated into Wellcotest Sensitivity Test Agar fortified with 5% hemolyzed horse blood (9 ml. vol.) in sterile Petri dishes to give plates containing varying concentrations of the test compound. The hardened surfaces of each plate are incubated with the test organism, and the plates are incubated for 18 hours at 35° C.

S. paratyphi 11737 = assay: as above; type: cell-based; settings: Salmonella enterica, read-out: MIC, S. paratyphi 11737
Procedure: as §1

S. aureus 53-180 = assay: as above; type: cell-based; settings: Staphylococcus aureus, 53180; Wellcotest Sensitivity Test Agar, 5% hemolyzed horse blood, 18 hours at 35° C.
Procedure: as §1

E. coli 9637 = assay: as above; type: cell-based; settings: read-out: MIC, E. coli 9637
Procedure: as §1

S. aureus Smith = assay: as above; type: cell-based; settings: Staphylococcus aureus; Wellcotest Sensitivity Test Agar, 5% hemolyzed horse blood, 18 hours at 35° C.
Procedure: as §1

P. vulgaris 6896 = assay: as above; type: cell-based; settings: Proteus vulgaris, Wellcotest Sensitivity Test Agar, 5% hemolyzed horse blood, 18 hours at 35° C.
Procedure: as §1

[1] = Blood schizonticidal antimalarial test in mice infected with Plasmodium berghei; settings: mouse, in vivo, sc
Procedure: (§2) Test animals weigh from 18 to 22 grams but weight variations in any given experimental or control group are confined to 2-3 grams. All animals in any given test are approximately of the same age. Animals on test are housed in metal-topped plastic cages, given a standard laboratory diet and water ad libitum.
(§3) Test animals receive an intraperitoneal injection of 0.5 ml. of 1:100 dilution of heparinized heart's blood with a minimum of 90% parasitized cells (4×10^7 cells), drawn from donor mice infected one week earlier with Plasmodium berghei. The donor strain is maintained by weekly passages in separate groups of mice inoculated with a 0.5 ml. of 1:500 dilution of heparinized heart's blood.
(§4) Test compounds are administered after dissolution or suspension in peanut oil. A single dose is given subcutaneously 72 hours after the mice are infected with Plasmodium berghei. […] Since treatment is withheld for three days to permit the infection to become well established and death occurs in untreated controls within 6-8 days, it is felt that this system presents a candidate compound with the maximum challenge. In order to check factors such as changes in the infectivity of Plasmodium berghei or in the susceptibility of the host or to detect technical errors, a group of infected animals treated with pyrimethamine at dose levels producing definite increases in survival time is included in a positive control in every experiment.
(§5) In each experiment test compounds are administered in graded dosages. […] Deaths prior to the sixth day, when untreated controls begin to die, are regarded as nonparasitic and become the basis for toxicity evaluations. Treated animals are kept under observation for 60 days. Survivors at the end of this period of time are considered as cured. In calculating mean survival time, toxic deaths and 60-day survivors are not included.

[2] = test system: Plasmodium berghei KBG 173; assay: as above; settings: for ED100 / minimal effective dose: Plasmodium berghei, in Mus musculus, sc; for ED100: read-out: Lowest Dose Curing All Mice; for minimal effective dose: read-out: Min. Curing Dose; for ΔMST (increase in mean survival time of treated animals to untreated controls): s.c.
Procedure: as §2, §3, §4, §5

N. catarrhalis 8193 = assay: In vitro antibacterial activity, MIC by agar dilution; type: cell-based; settings: Wellcotest Sensitivity Test Agar, 5% hemolyzed horse blood, 18 hours at 35° C.
Procedure: as §1

[3] = Wellcotest Sensitivity Test Agar, 5% hemolyzed horse blood, 18 hours at 35° C.
[4] = Klebsiella pneumoniae, 10031, Wellcotest Sensitivity Test Agar, 5% hemolyzed horse blood, 18 hours at 35° C.
[5] = Escherichia coli, 9637, Wellcotest Sensitivity Test Agar, 5% hemolyzed horse blood, 18 hours at 35° C.

| Compound | MIC (K. pneumoniae 10031; Klebsiella pneumoniae, 10031, 18 h) [µg/mL] | MIC (S. paratyphi 11737; [3]) [µg/mL] | MIC (S. aureus 53-180) [µg/mL] | MIC (E. coli 9637; Escherichia coli, 9637, 18 h) [µg/mL] | MIC (S. aureus Smith) [µg/mL] | MIC (P. vulgaris 6896) [µg/mL] | MTD at 1440 h [1] [mg/kg] | ED100 ([2]; 1440 h) [mg/kg] | minimal effective dose ([2]; 1440 h) [mg/kg] | ΔMST (increase in mean survival time of treated animals to untreated controls) ([2]; dose 5 mg. per kg.) | MIC (K. pneumoniae 10031; [4]) [µg/mL] | MIC (E. coli 9637; [5]) [µg/mL] | MIC (N. catarrhalis 8193) [µg/mL] | ΔMST (increase in mean survival time of treated animals to untreated controls) ([2]; dose 160 mg. per kg.) | ΔMST (increase in mean survival time of treated animals to untreated controls) ([2]; dose 10 mg. per kg.) | MIC (S. paratyphi 11737; 18 h) [µg/mL] | ED100 ([2]; 336 h) [mg/kg] | minimal effective dose ([2]; 336 h) [mg/kg] | ΔMST (increase in mean survival time of treated animals to untreated controls) ([2]; dose 20 mg. per kg.) |
| --- | --- | --- | --- | --- | --- | --- | --- | --- | --- | --- | --- | --- | --- | --- | --- | --- | --- | --- | --- |
| Cc1ccc(C)c(S(=O)(=O)n2ccc3c4c(N)nc(N)nc4ccc32)c1 [Example 2, 7-[(2,5-Dimethylphenyl)Sulfonyl]-7H-Pyrrolo-[3,2-f]Quinazoline-1,3-Diamine] | 31.3 (≈ 85.2 µM) | 31.3 (≈ 85.2 µM) | 0.976 (≈ 2.66 µM) | 31.3 (≈ 85.2 µM) | 7.81 (≈ 21.3 µM) | 62.5 (≈ 170 µM) | 160 | 40 | 20 | 6.6 |  |  |  |  |  |  |  |  |  |
| Nc1nc(N)c2c(ccc3c2ccn3S(=O)(=O)c2ccc([N+](=O)[O-])cc2)n1 [Example 3] |  | > 250 | 3.9 (≈ 10.1 µM) |  | 7.81 (≈ 20.3 µM) | > 250 |  |  | 640 |  | 3.9 (≈ 10.1 µM) | 7.81 (≈ 20.3 µM) | 0.12 (≈ 0.312 µM) | 8.4 |  |  |  |  |  |
| Nc1nc(N)c2c(ccc3c2ccn3S(=O)(=O)c2ccc3ccccc3c2)n1 [Example 4] |  | > 250 | 250 (≈ 642 µM) |  | 250 (≈ 642 µM) | > 250 |  |  | 20 |  | > 250 | > 250 | 15.6 (≈ 40.1 µM) |  | 11.4 |  |  |  |  |
| Cc1ccc(S(=O)(=O)n2ccc3c4c(N)nc(N)nc4ccc32)cc1 [Example 5] |  | > 250 | 62.5 (≈ 177 µM) |  | 125 (≈ 354 µM) | > 250 | 640 | 80 | 20 |  | 15.6 (≈ 44.1 µM) | > 250 | 1.95 (≈ 5.52 µM) |  | 5.8 |  |  |  |  |
| COc1ccc(S(=O)(=O)n2ccc3c4c(N)nc(N)nc4ccc32)cc1 [Example 6] |  | > 250 | 7.81 (≈ 21.1 µM) |  | 15.6 (≈ 42.2 µM) | > 250 | 640 | 160 | 40 |  | 3.9 (≈ 10.6 µM) | > 250 | 0.122 (≈ 0.33 µM) |  |  |  |  |  |  |
| Nc1nc(N)c2c(ccc3c2ccn3S(=O)(=O)c2ccc(Cl)c(Cl)c2)n1 [Example 7] |  |  | 3.9 (≈ 9.55 µM) |  | 31.3 (≈ 76.7 µM) | > 250 | 640 |  |  |  | 3.13 (≈ 7.67 µM) | > 250 | 0.122 (≈ 0.299 µM) |  |  | > 250 | 10 | 1.25 |  |
| Nc1nc(N)c2c(ccc3c2ccn3S(=O)(=O)c2ccc(Cl)cc2)n1 [Example 8] |  | > 250 | 15.6 (≈ 41.7 µM) |  | 62.5 (≈ 167 µM) | > 250 | 160 |  |  |  | 7.81 (≈ 20.9 µM) | > 250 | 0.244 (≈ 0.653 µM) |  |  |  | 40 | 40 |  |
| Nc1nc(N)c2c(ccc3c2ccn3S(=O)(=O)c2cccc(C(F)(F)F)c2)n1 [Example 9] |  | > 250 | 0.976 (≈ 2.4 µM) |  | 3.9 (≈ 9.57 µM) | > 250 | 160 | 40 | 10 | 6.6 | 3.9 (≈ 9.57 µM) | > 250 |  |  |  |  |  |  |  |
| Nc1nc(N)c2c(ccc3c2ccn3S(=O)(=O)c2ccccc2)n1 [Example 10] |  | 15.6 (≈ 46 µM) | 0.976 (≈ 2.88 µM) |  | 1.95 (≈ 5.75 µM) | 125 (≈ 368 µM) |  |  | 40 |  | 0.488 (≈ 1.44 µM) | 3.9 (≈ 11.5 µM) |  |  |  |  |  |  | 7.2 |
| CC(=O)Nc1ccc(S(=O)(=O)n2ccc3c4c(N)nc(N)nc4ccc32)cc1 [Example 11] |  | > 250 | 31.3 (≈ 79 µM) |  | 31.3 (≈ 79 µM) | > 250 | 320 | 20 | 10 | 9.3 | 7.81 (≈ 19.7 µM) | > 250 |  |  |  |  |  |  |  |
| CC(C)(C)c1ccc(S(=O)(=O)n2ccc3c4c(N)nc(N)nc4ccc32)cc1 [Example 12] |  | > 250 | 3.9 (≈ 9.86 µM) |  | 7.81 (≈ 19.7 µM) | > 250 | 640 | 40 | 20 |  | 1.95 (≈ 4.93 µM) | 250 (≈ 632 µM) |  |  | 6.5 |  |  |  |  |
